Laboratory results: patent publication US20110130450A1, “PRAVASTATIN EXTRACTION” (priority 2008, published 2011)

Tests used:
Format in all cases: physicochemical
[1] = Batch-wise single stage back-extraction from ethyl acetate into water, distribution coefficient by HPLC
Experimental: (§1) HPLC analysis was based on reversed phase liquid chromatography followed by UV-detection at 238 nm. Apparatus: Dionex HPLC-UV system comprising of a P680 pump, a TCC-100 column compartment with thermostat, a WPS-3000 auto sampler and a UVD34OU PDA detector.
(§2) pH values mentioned in the description and claims of the present application were measured using a Radiometer PHM82 standard pH meter equipped with a Mettler Toledo Inlab 412 pH electrode (electrolyte 9823). Equilibration was carried out at 20±1° C. using a Merck pH 4.00 buffer (art. nr. 1.09435.1000) and a Merck pH 7.00 buffer (art. nr. 1.09439.1000).
A broth obtained by fermentation of Penicillium chrysogenum transformant T1.48 as described in Example 4 of WO 2007/147827 (2 liter, containing 2.5 g/kg pravastatin and 0.8 g/kg compactin) was centrifuged and the supernatant was divided into 2 portions of 800 ml. One of these portions of supernatant (800 ml), ethyl acetate (800 ml) and dicalite 448 (20 g) were mixed and the pH was adjusted to 4 with 6N sulfuric acid. The mixture was filtered over a Seitz Z-2000 filter plate. The phases of the filtrate were separated and the organic phase was washed once with water (400 ml), giving an ethyl acetate extract (700 ml) which was divided into eight portions of 80 ml and one of 60 ml. Each portion was mixed with an equal volume of water at a certain pH, varying from 4.5 to 8. After mixing, the phases were separated and analyzed by HPLC.

[2] = Batch-wise single stage back-extraction from methyl isobutyl ketone into water, distribution coefficient by HPLC
Experimental: as §1, §2
One of the portions of supernatant (800 ml) obtained in Example 1, methyl isobutyl ketone (800 ml) and dicalite 448 (20 g) were mixed and the pH was adjusted to 4 with 6N sulfuric acid. The mixture was filtered over a Seitz Z-2000 filter plate. The phases of the filtrate were separated and the organic phase was washed once with water (400 ml), giving a methyl isobutyl ketone extract (750 ml) from which eight portions of 80 ml were taken. Each portion was mixed with an equal volume of water at a certain pH, varying from 4.5 to 8. After mixing, the phases were separated and analyzed by HPLC.

[3] = Multi stage cross-current back-extraction from isobutyl acetate at pH 6, distribution coefficient by HPLC; details: water/isobutyl acetate
Experimental: as §1, §2
Starting material for this experiment was broth filtrate, obtained after ultra-filtration of broth obtained by fermentation of Penicillium chrysogenum transformant T1.48 as described in Example 4 of WO 2007/147827 using a 50 nm poly-sulfone membrane. The filtrate (2 liter, containing 1.2 g/l pravastatin and 0.37 g/l compactin) was extracted twice with isobutyl acetate (2×1 liter) at pH 4. For a clear phase separation, the organic phases were filtered through a Seitz Z-2000 filter plate. The organic phases were combined and washed with water (500 ml), giving isobutyl acetate extract (1960 ml) which was concentrated to 100 ml under vacuum at T<40° C. The concentrate was decolorized using a coal cartridge filled with Cuno C55 carbon (1.8 g carbon; diameter of carbon plate 18 cm^2). After rinsing a clear solution (150 ml) was obtained containing ˜12 g/l pravastatin and 3.8 g/l compactin. This solution was extracted three times with water (3×150 ml) at pH 6. The pH was adjusted with 25% ammonia. The aqueous and organic phases were analyzed with HPLC (Table 3). As can be calculated, after the second back-extraction the total extraction yield of pravastatin in the combined aqueous phases was 97.6% pravastatin and after the third back-extraction the total extraction yield of pravastatin in the combined aqueous phases was 99.6%. The ratio pravastatin:compactin was 3:1 in the starting mixture, 45:1 after one back-extraction, 25:1 after two back-extractions and 17:1 after three back-extractions.

[4] = Multi stage cross-current back-extraction from ethyl acetate at pH 5.9, distribution coefficient by HPLC; details: water/ethyl acetate
Experimental: as §1, §2
Starting material for this experiment was broth filtrate, obtained after ultra-filtration of broth obtained by fermentation of Penicillium chrysogenum transformant T1.48 as described in Example 4 of WO 2007/147827 using a 50 nm poly-sulfone membrane. The filtrate (5.25 liter, containing 1.2 g/l pravastatin and 0.37 g/l compactin) was extracted twice with ethyl acetate (2×2.5 liter) at pH 4. For a clear phase separation, the organic phases were filtered through a Seitz Z-2000 filter plate. The extraction yields were 90.6% and 8.3% respectively, so the overall extraction yield was 98.9%. The organic phases were combined and washed with water (2.5 liter), giving ethyl acetate extract (4.65 liter, yield over the wash step 97%) which was concentrated to 250 ml under vacuum at T<40° C., giving a clear solution containing ˜25 g/l pravastatin. This solution was extracted three times with water (3×250 ml) at pH 5.9. The pH was adjusted with 4N sodium hydroxide. The aqueous and organic phases were analyzed with HPLC (Table 4). As can be calculated, after the second back-extraction the total extraction yield of pravastatin in the combined aqueous phases was 91% pravastatin and after the third back-extraction the total extraction yield of pravastatin in the combined aqueous phases was 96%. The ratio pravastatin:compactin was 3:1 in the starting mixture, 26:1 after one back-extraction, 19:1 after two back-extractions and 17:1 after three back-extractions.

SMILES	Distribution coefficient (CAqueous phase/COrganic phase) ([1]; pH 4.5)	Distribution coefficient (CAqueous phase/COrganic phase) ([1]; pH 5)	Distribution coefficient (CAqueous phase/COrganic phase) ([1]; pH 5.5)	Distribution coefficient (CAqueous phase/COrganic phase) ([1]; pH 6)	Distribution coefficient (CAqueous phase/COrganic phase) ([1]; pH 6.25)	Distribution coefficient (CAqueous phase/COrganic phase) ([1]; pH 6.5)	Distribution coefficient (CAqueous phase/COrganic phase) ([1]; pH 7)	Distribution coefficient (CAqueous phase/COrganic phase) ([1]; pH 7.5)	Distribution coefficient (CAqueous phase/COrganic phase) ([1]; pH 8)	Distribution coefficient (CAqueous phase/COrganic phase) ([2]; pH 4.5)	Distribution coefficient (CAqueous phase/COrganic phase) ([2]; pH 5)	Distribution coefficient (CAqueous phase/COrganic phase) ([2]; pH 5.5)	Distribution coefficient (CAqueous phase/COrganic phase) ([2]; pH 6)	Distribution coefficient (CAqueous phase/COrganic phase) ([2]; pH 6.5)	Distribution coefficient (CAqueous phase/COrganic phase) ([2]; pH 7)	Distribution coefficient (CAqueous phase/COrganic phase) ([2]; pH 7.5)	Distribution coefficient (CAqueous phase/COrganic phase) ([2]; pH 8)	Distribution coefficient (CAqueous phase/COrganic phase) ([3]; pH 6, 1st extraction)	Distribution coefficient (CAqueous phase/COrganic phase) ([3]; pH 6, 2nd extraction)	Distribution coefficient (CAqueous phase/COrganic phase) ([3]; pH 6, 3rd extraction)	further results
CC[C@H](C)C(=O)O[C@H]1CCC=C2C=C[C@H](C)[C@H](CC[C@@H](O)C[C@@H](O)CC(=O)[O-])[C@H]21.[Na+] [Comp, compactin]	0.0	0.0	0.0	0.0	0.0	0.1	0.3	0.8	2.9	0.0	0.0	0.0	0.0	0.1	0.2	0.9	3.3	0.06	0.07	0.07	Distribution coefficient (CAqueous phase/COrganic phase) ([4]; pH 5.9, 1st extraction): 0.08; Distribution coefficient (CAqueous phase/COrganic phase) ([4]; pH 5.9, 2nd extraction): 0.06; Distribution coefficient (CAqueous phase/COrganic phase) ([4]; pH 5.9, 3rd extraction): 0.03
CC[C@H](C)C(=O)O[C@H]1C[C@H](O)C=C2C=C[C@H](C)[C@H](CC[C@@H](O)C[C@@H](O)CC(=O)[O-])[C@H]21.[Na+] [Prava, pravastatin]	0.1	0.2	0.4	1.2	1.9	3.5	10.3	27.4	94.1	0.2	0.2	0.6	1.4	4.0	12.0	37.5	83.8	4.8	5.9	5.2	Distribution coefficient (CAqueous phase/COrganic phase) ([4]; pH 5.9, 1st extraction): 1.5; Distribution coefficient (CAqueous phase/COrganic phase) ([4]; pH 5.9, 2nd extraction): 1.9; Distribution coefficient (CAqueous phase/COrganic phase) ([4]; pH 5.9, 3rd extraction): 0.7
